pEC50, pIC50: −log10 of the molar value.
Assays:
[1] = tested on: NHACs; assay: calcium flux assay; format: cell-based, human; details: Homo sapiens; for Emax: read-out: (A) % Efficacy
In short: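 FLIPR fluorescence (ex 470–495 nm, em 515–575 nm) was read before and after compound dispense at the indicated dose. Chondrocytes (NHACs), 2000 cells/well, had been dye-loaded 24 h after plating with Calcium 5 in HBSS/HEPES plus 5 mM probenecid, 1 h, room temperature.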

[2] = tested on: C3H10T1/2 cell line; assay: alkaline phosphatase assay in C3H10T1/2; format: cell-based; details: Mus musculus, C3H 10T1/2, 144 h, alkaline phosphatase assay in C3H10T1/2, 6 days; for Emax: read-out: (D) % Efficacy; for pIC50: read-out: (D) IC50
Method: To initiate differentiation in C3H10T1/2, Clone 8 (ATCC cat #CCL-226), 4,000 cells were plated/well in 384 Perkin Elmer CellCarrier Ultra plate in DMEM/High glucose (HyClone cat #SH30022.01) containing 10% FBS and 1× Antibiotic/Antimycotic (HyClone cat #SV30079.01). After 24 hours the test compound was then added to each well at the indicated dose. The cultures were grown at 37° C. for 6 days.
To detect the presence of hypertrophic cells, C3H10T1/2 were fixed with 4% paraformaldehyde and Hoeschst dye for 20 minutes, rinsed in PBS, then stained with Fast Blue RR Salt with Naphthol AS-MX Phosphate Alkaline Solution.
The ALP staining was imaged by fluoresecent microscopy, using the 561 wavelength, and/or quantified by high content imagining with the ImageXpress Micro Confocal (Molecular Devices, Sunnyvale, CA). Data analyses were performed with the customized multiwavelength cell-scoring application looking at the number of ALP positive cells per well.

Compound	pEC50 [1]	pIC50 [2]	Emax [1] [%]	Emax [2] [%]
Cc1cc([C@H]2[C@H]3O[C@H]([C@@H]4C[C@@H]43)[C@@H]2C(=O)Nc2cccc(OC(F)(F)F)c2)ccn1 [Example 69, (1S,2S,4R,5R,6R,7S)-7-(2-methylpyridin-4-yl)-N-(3-(trifluoromethoxy)phenyl)-8-oxatricyclo[3.2.1.0^2,4]octane-6-carboxamide]	4.68	< 4.70	180	63
Cc1cc([C@H]2[C@H]3O[C@H]([C@@H]4C[C@@H]43)[C@@H]2C(=O)Nc2ncc(C)s2)ccn1 [Example 70, (1S,2S,4R,5R,6R,7S)-7-(2-methylpyridin-4-yl)-N-(5-methylthiazol-2-yl)-8-oxatricyclo[3.2.1.0^2,4]octane-6-carboxamide]	< 4.30	< 4.70	25	1
Cc1ccc([C@H]2[C@H]3O[C@H]([C@@H]4C[C@@H]43)[C@@H]2C(=O)Nc2cnc(Cl)c(Cl)c2)cn1 [Example 74, (1S,2S,4R,5R,6R,7S)—N-(5,6-dichloropyridin-3-yl)-7-(6-methylpyridin-3-yl)-8-oxatricyclo[3.2.1.0^2,4]octane-6-carboxamide]	5.11	< 4.70	90	83
O=C(Nc1cnc(Cl)c(Cl)c1)[C@H]1[C@@H]2O[C@@H]([C@H]3C[C@H]32)[C@@H]1c1cncnc1 [Example 75, (1S,2S,4R,5R,6R,7S)—N-(5,6-dichloropyridin-3-yl)-7-(pyrimidin-5-yl)-8-oxatricyclo[3.2.1.0^2,4]octane-6-carboxamide]	5.36	< 4.70	73	45
Cc1cc([C@@H]2[C@@H]3O[C@@H](C[C@H]3O)[C@H]2C(=O)Nc2ccc(Cl)c(Cl)c2)ccn1 [Example 77c, (1S,2S,3R,4S,5R)-N-(3,4-dichlorophenyl)-5-hydroxy-3-(2-methylpyridin-4-yl)-7-oxabicyclo[2.2.1]heptane-2-carboxamide]	4.89	5.41	72	72
Cc1cc([C@H]2[C@H](C(=O)Nc3ccc(Cl)c(Cl)c3)[C@H]3O[C@@H]2C[C@@H]3O)ccn1 [Example 77d, (1R,2S,3R,4R,6S)-N-(3,4-dichlorophenyl)-6-hydroxy-3-(2-methylpyridin-4-yl)-7-oxabicyclo[2.2.1]heptane-2-carboxamide]	4.48	< 4.70	92	54
Cc1cc([C@H]2[C@H]3O[C@H](C[C@@H]3O)[C@@H]2C(=O)NC2CCN(S(C)(=O)=O)CC2)ccn1 [Example 79, (1R,2R,3S,4R,5S)-5-hydroxy-3-(2-methylpyridin-4-yl)-N-(1-(methylsulfonyl)piperidin-4-yl)-7-oxabicyclo[2.2.1]heptane-2-carboxamide]	< 4.30	< 4.70	113	34
Cc1cc([C@@H]2[C@@H]3O[C@@H](C[C@H]3O)[C@H]2C(=O)Nc2cnc(Cl)c(Cl)c2)ccn1 [Example 84, (1S,2S,3R,4S,5R)-N-(5,6-dichloropyridin-3-yl)-5-hydroxy-3-(2-methylpyridin-4-yl)-7-oxabicyclo[2.2.1]heptane-2-carboxamide]	< 4.30	< 4.70	61	31
COc1cc([C@H]2[C@H]3O[C@H](C[C@@H]3F)[C@@H]2C(=O)Nc2ccc(Cl)c(Cl)c2)ccn1 [Example 103, (1R,2R,3S,4R,5S)—N-(3,4-dichlorophenyl)-5-fluoro-3-(2-methoxypyridin-4-yl)-7-oxabicyclo[2.2.1]heptane-2-carboxamide]	4.62	5.00	153	79
Cc1cc([C@H]2[C@H]3O[C@H](C[C@@H]3F)[C@@H]2C(=O)Nc2ccc(Cl)c(Cl)c2)ccn1 [Example 105, (1R,2R,3S,4R,5S)—N-(3,4-dichlorophenyl)-5-fluoro-3-(2-methylpyridin-4-yl)-7-oxabicyclo[2.2.1]heptane-2-carboxamide]	5.09	5.77	106	68
Cc1cc([C@H]2[C@H]3O[C@H]([C@@H]4C[C@@H]43)[C@@H]2C(=O)Nc2ccc(Cl)c(Cl)c2)ccn1 [Example 117, (1S,2S,4R,5R,6R,7S)—N-(3,4-dichlorophenyl)-7-(2-methylpyridin-4-yl)-8-oxatricyclo[3.2.1.0^2,4]octane-6-carboxamide]	5.52	5.15	177	59
O=C(Nc1ccc(Cl)c(Cl)c1)[C@H]1[C@@H]2O[C@@H]([C@H]3C[C@H]32)[C@@H]1c1cccc(C(F)(F)F)n1 [Example 120, (1S,2S,4R,5R,6R,7S)—N-(3,4-dichlorophenyl)-7-(6-(trifluoromethyl)pyridin-2-yl)-8-oxatricyclo[3.2.1.0^2,4]octane-6-carboxamide]	4.70	5.36	102	119
COc1ccc(NC(=O)[C@H]2[C@@H]3O[C@@H]([C@H]4C[C@H]43)[C@@H]2c2ccc(C)nc2)cn1 [Example 123, (1S,2S,4R,5R,6R,7S)—N-(6-methoxypyridin-3-yl)-7-(6-methylpyridin-3-yl)-8-oxatricyclo[3.2.1.0^2,4]octane-6-carboxamide]	< 4.30	< 4.70	0	48
O=C(Nc1cnc(Cl)c(Cl)c1)[C@H]1[C@@H]2O[C@@H]([C@H]3C[C@H]32)[C@@H]1c1ccnc(F)c1F [Example 124, (1S,2S,4R,5R,6R,7S)—N-(5,6-dichloropyridin-3-yl)-7-(2,3-difluoropyridin-4-yl)-8-oxatricyclo[3.2.1.0^2,4]octane-6-carboxamide]	5.55	4.77	160	59

Second part, led by results:

pEC50 [1]	pIC50 [2]	Compound	Emax [1] [%]	Emax [2] [%]
< 4.30	< 4.70	COc1ccc(NC(=O)[C@H]2[C@@H]3O[C@@H]([C@H]4C[C@H]43)[C@@H]2c2cccc(C(F)(F)F)n2)cn1 [Example 128, (1S,2S,4R,5R,6R,7S)—N-(6-methoxypyridin-3-yl)-7-(6-(trifluoromethyl)pyridin-2-yl)-8-oxatricyclo[3.2.1.0^2,4]octane-6-carboxamide]	27	39
< 4.30	< 4.70	Cc1ccc([C@H]2[C@H]3O[C@H](C[C@@H]3O)[C@@H]2C(=O)Nc2ccc(Cl)c(Cl)c2)cn1 [Example 138, (1R,2R,3S,4R,5S)—N-(3,4-dichlorophenyl)-5-hydroxy-3-(6-methylpyridin-3-yl)-7-oxabicyclo[2.2.1]heptane-2-carboxamide]	0	24
5.11	4.74	Cc1ncc([C@H]2[C@H]3O[C@H](C[C@@H]3O)[C@@H]2C(=O)Nc2ccc(Cl)c(Cl)c2)cn1 [Example 148, (1R,2R,3S,4R,5S)—N-(3,4-dichlorophenyl)-5-hydroxy-3-(2-methylpyrimidin-5-yl)-7-oxabicyclo[2.2.1]heptane-2-carboxamide]	51	58
4.59	5.08	Nc1cc([C@H]2[C@H]3O[C@H](C[C@@H]3O)[C@@H]2C(=O)Nc2ccc(Cl)c(Cl)c2)ccn1 [Example 149, (1R,2R,3S,4R,5S)-3-(2-aminopyridin-4-yl)-N-(3,4-dichlorophenyl)-5-hydroxy-7-oxabicyclo[2.2.1]heptane-2-carboxamide]	112	58
4.92	5.70	Cn1cc([C@H]2[C@H]3O[C@H](C[C@@H]3O)[C@@H]2C(=O)Nc2ccc(Cl)c(Cl)c2)cn1 [Example 152, (1R,2R,3S,4R,5S)—N-(3,4-dichlorophenyl)-5-hydroxy-3-(1-methyl-1H-pyrazol-4-yl)-7-oxabicyclo[2.2.1]heptane-2-carboxamide]	44	61
4.72	< 4.70	Cn1ccc([C@H]2[C@H]3O[C@H](C[C@@H]3O)[C@@H]2C(=O)Nc2ccc(Cl)c(Cl)c2)n1 [Example 153, (1R,2R,3S,4R,5S)—N-(3,4-dichlorophenyl)-5-hydroxy-3-(1-methyl-1H-pyrazol-3-yl)-7-oxabicyclo[2.2.1]heptane-2-carboxamide]	121	46
4.59	5.40	O=C(Nc1ccc(Cl)c(Cl)c1)[C@@H]1[C@@H](c2cnc(C(F)(F)F)nc2)[C@H]2O[C@@H]1C[C@@H]2O [Example 154, (1R,2R,3S,4R,5S)—N-(3,4-dichlorophenyl)-5-hydroxy-3-(2-(trifluoromethyl)pyrimidin-5-yl)-7-oxabicyclo[2.2.1]heptane-2-carboxamide]	236	75
5.22	< 4.70	COc1cc([C@H]2[C@H]3O[C@H](C[C@H]3F)[C@@H]2C(=O)Nc2ccc(Cl)c(Cl)c2)ccn1 [Example 165, (1R,2R,3S,4R,5R)—N-(3,4-dichlorophenyl)-5-fluoro-3-(2-methoxypyridin-4-yl)-7-oxabicyclo[2.2.1]heptane-2-carboxamide]	110	59

From patent US12209096B2, “Compounds and compositions for inducing chondrogenesis” (NOVARTIS AG, priority 2017, dated 2025)
